Results taken from patent publication US20130065818A1, “Arylamide Compounds And Compositions And Uses Thereof” (POLYMEDIX, priority 2006, published 2013).
Like-named read-outs stand apart in the source and are kept apart here.

Tests used:
[1] = tested on: Staphylococcus aureus fluoroquinolone-resistant; assay: MIC, 25 ocular isolates, broth microdilution (Example 8); type: cell-based
Procedure: (§1) • Mueller-Hinton Broth in tubes was inoculated with 25 ocular isolates of Staphylococcus aureus fluoroquinolone-susceptible, Staphylococcus aureus fluoroquinolone-resistant, Staphylococcus epidermidis (Coagulase-negative Staphylococcus) fluoroquinolone-susceptible, Staphylococcus epidermidis (Coagulase-negative Staphylococcus) fluoroquinolone-resistant, Pseudomonas aeruginosa and Serratia marcescens, plus two controls (Staphylococcus aureus and E. coli) and incubated at 37° C. overnight on a shaker set at 250 rpm.
(§2) On the day of testing, a 640 μg/ml (1280 μg/ml for Serratia marcescens and Pseudomonas aeruginosa) concentration was prepared from a 1% stock solution in 0.01% acetic acid, 0.2% BSA in polypropylene tubes.
(§3) Serial doubling dilutions in 0.01% acetic acid, 0.2% BSA in 96 well polypropylene plates, which are used as reservoirs for the inoculation of the test plates, were carried out to obtain serial dilutions of test agents at 10 times the required test concentrations: 640, 320, 160, 80, 40, 20, 10, 5, 2.5, 1.25, and 0.625 μg/ml (1280, 640, 320, 160, 80, 40, 20, 10, 5, 2.5, and 1.25 μg/ml for Serratia marcescens and Pseudomonas aeruginosa).
(§4) Ten μl of diluted 10×test agents was added to each well of one row of the 96 well polypropylene plates from column 2 to column 12 (column 1 is a control for bacteria alone, with no peptide). Test agent concentrations in columns 2-12 were as follows: 64, 32, 16, 8, 4, 2, 1, 0.5, 0.25, 0.125, and 0.0625 μg/ml (128, 64, 32, 16, 8, 4, 2, 1, 0.5, 0.25, and 0.125 μg/ml for Serratia marcescens and Pseudomonas aeruginosa). The same peptide was in each of the 8 rows. One plate contained dilutions of one test agent and 8 bacterial isolates.
(§5) On the day of testing, the overnight bacterial broth cultures of Staphylococcus aureus fluoroquinolone-susceptible, Staphylococcus aureus fluoroquinolone-resistant, Staphylococcus epidermidis (Coagulase-negative Staphylococcus) fluoroquinolone-susceptible, Staphylococcus epidermidis (Coagulase-negative Staphylococcus) fluoroquinolone-resistant, Serratia marcescens, and Pseudomonas aeruginosa, plus two controls (Staphylococcus aureus and E. coli) were diluted in 5 ml of trypticase soy broth to yield turbidity equal to a 0.5 McFarland standard. The final inoculum for MIC testing for Staphylococcus aureus fluoroquinolone-susceptible, Staphylococcus aureus fluoroquinolone-resistant, Staphylococcus epidermidis (Coagulase-negative Staphylococcus) fluoroquinolone-susceptible, Staphylococcus epidermidis (Coagulase-negative Staphylococcus) fluoroquinolone-resistant, Serratia marcescens, and Pseudomonas aeruginosa was achieved by placing 0.05 ml of the turbidity adjusted sample to 5 ml of Mueller-Hinton broth.
(§6) Ninety μl of the bacterial suspensions was dispensed in each well from column 1 to column 12. Each bacterial isolate was placed in one row of a 96 well polypropylene plate containing the test agents. The plates were placed on shaker at 15 minutes at room temperature, and then incubated at 37° C. overnight. MICs were determined visually as the lowest concentration of drug that inhibits visible bacterial growth.

[2] = tested on: Staphylococcus epidermidis (Coagulase-negative Staphylococcus) fluoroquinolone-susceptible; assay: as above; type: cell-based
Procedure: as §1, §2, §3, §4, §5, §6

N=C(N)NCCCCC(=O)Nc1cc(C(F)(F)F)cc(NC(=O)c2cnc(C(=O)Nc3cc(C(F)(F)F)cc(NC(=O)CCCCNC(=N)N)c3SCCN)cn2)c1SCCN [Oligomer 5]
0.25 mg/L: MIC50 ([1]; 25 isolates, Row 13) | MIC ([1]; Staphylococcus aureus, isolate 2—E475, read-out: MIC) | MIC ([1]; Staphylococcus aureus, isolate 3—E442, read-out: MIC) | MIC ([1]; Staphylococcus aureus, isolate 5—E425, read-out: MIC) | MIC ([1]; Staphylococcus aureus, isolate 6—E424, read-out: MIC) | MIC ([1]; Staphylococcus aureus, isolate 7—E417, read-out: MIC) | MIC ([1]; Staphylococcus aureus, isolate 9—E401, read-out: MIC) | MIC ([1]; Staphylococcus aureus, isolate 10—K1659, read-out: MIC) | MIC ([1]; Staphylococcus aureus, isolate 11—E96, read-out: MIC) | MIC ([1]; Staphylococcus aureus, isolate 14—E361, read-out: MIC) | MIC ([1]; Staphylococcus aureus, isolate 15—E339, read-out: MIC) | MIC ([1]; Staphylococcus aureus, isolate 17—E332, read-out: MIC) | MIC ([1]; Staphylococcus aureus, isolate 18—E327, read-out: MIC) | MIC ([1]; Staphylococcus aureus, isolate 19—E325, read-out: MIC) | MIC ([1]; Staphylococcus aureus, isolate 20—K950, read-out: MIC) | MIC ([1]; Staphylococcus aureus, isolate 21—K839, read-out: MIC) | MIC ([1]; Staphylococcus aureus, isolate 22—K1679, read-out: MIC) | MIC ([1]; Staphylococcus aureus, isolate 24—K1672, read-out: MIC) | MIC ([1]; Staphylococcus aureus, isolate 25—K1670, read-out: MIC) | MIC ([1]; Staphylococcus aureus, n=25 per group, read-out: Median MIC) | MIC50 ([1]; Staphylococcus aureus, 25 isolates, Summary of Results, read-out: MIC50) | MIC ([1]; Staphylococcus aureus, 25 isolates, Summary of Results, read-out: Median MIC) | MIC50 ([1]; n=25 per group) | MIC90 ([2]; 25 isolates, Row 22) | MIC ([2]; Staphylococcus epidermidis, isolate 1—E511, read-out: MIC) | MIC ([2]; Staphylococcus epidermidis, isolate 4—E476, read-out: MIC) | MIC ([2]; Staphylococcus epidermidis, isolate 22—E328, read-out: MIC) | MIC ([2]; Staphylococcus epidermidis, isolate 24—E381, read-out: MIC) | MIC90 ([2]; Staphylococcus epidermidis, 25 isolates, Summary of Results, read-out: MIC90) | MIC90 ([2]; n=25 per group)
< 0.0625 mg/L: MIC ([2]; Staphylococcus epidermidis, isolate 10—E443, read-out: MIC) | MIC ([2]; Staphylococcus epidermidis, isolate 25—E372, read-out: MIC)
0.125 mg/L: MIC ([1]; Staphylococcus aureus, isolate 8—E407, read-out: MIC) | MIC ([1]; Staphylococcus aureus, isolate 16—E333, read-out: MIC) | MIC50 ([2]; 25 isolates, Row 13) | MIC ([2]; Staphylococcus epidermidis, isolate 2—E489, read-out: MIC) | MIC ([2]; Staphylococcus epidermidis, isolate 3—E491, read-out: MIC) | MIC ([2]; Staphylococcus epidermidis, isolate 5—E473, read-out: MIC) | MIC ([2]; Staphylococcus epidermidis, isolate 6—E462, read-out: MIC) | MIC ([2]; Staphylococcus epidermidis, isolate 7—E460, read-out: MIC) | MIC ([2]; Staphylococcus epidermidis, isolate 8—E453, read-out: MIC) | MIC ([2]; Staphylococcus epidermidis, isolate 9—E448, read-out: MIC) | MIC ([2]; Staphylococcus epidermidis, isolate 11—E441, read-out: MIC) | MIC ([2]; Staphylococcus epidermidis, isolate 12—E438, read-out: MIC) | MIC ([2]; Staphylococcus epidermidis, isolate 13—E437, read-out: MIC) | MIC ([2]; Staphylococcus epidermidis, isolate 14—E434, read-out: MIC) | MIC ([2]; Staphylococcus epidermidis, isolate 15—E433, read-out: MIC) | MIC ([2]; Staphylococcus epidermidis, isolate 16—E430, read-out: MIC) | MIC ([2]; Staphylococcus epidermidis, isolate 17—E420, read-out: MIC) | MIC ([2]; Staphylococcus epidermidis, isolate 18—E419, read-out: MIC) | MIC ([2]; Staphylococcus epidermidis, isolate 19—E403, read-out: MIC) | MIC ([2]; Staphylococcus epidermidis, isolate 20—E394, read-out: MIC) | MIC ([2]; Staphylococcus epidermidis, isolate 21—E393, read-out: MIC) | MIC ([2]; Staphylococcus epidermidis, isolate 23—E382, read-out: MIC) | MIC ([2]; Staphylococcus epidermidis, n=25 per group, read-out: Median MIC) | MIC50 ([2]; Staphylococcus epidermidis, 25 isolates, Summary of Results, read-out: MIC50) | MIC ([2]; Staphylococcus epidermidis, 25 isolates, Summary of Results, read-out: Median MIC) | MIC50 ([2]; n=25 per group)
≤ 0.25 mg/L: MIC ([1]; Staphylococcus aureus, 25 ocular isolates, read-out: Median MIC) | MIC ([2]; Staphylococcus epidermidis, 25 ocular isolates, read-out: Median MIC)
0.125 to 0.5 µg/mL: Range of MICs ([1]; 25 isolates, Summary of Results) | Range of MICs ([1]; n=25 per group)
0.03125 to 0.25 µg/mL: Range of MICs ([2]; 25 isolates, Summary of Results, <0.0625 was Replaced with 0.03125) | Range of MICs ([2]; n=25 per group)
0.5 mg/L: MIC90 ([1]; 25 isolates, Row 22) | MIC ([1]; Staphylococcus aureus, isolate 1—E504, read-out: MIC) | MIC ([1]; Staphylococcus aureus, isolate 4—E427, read-out: MIC) | MIC ([1]; Staphylococcus aureus, isolate 12—E379, read-out: MIC) | MIC ([1]; Staphylococcus aureus, isolate 13—E369, read-out: MIC) | MIC ([1]; Staphylococcus aureus, isolate 23—K1677, read-out: MIC) | MIC90 ([1]; Staphylococcus aureus, 25 isolates, Summary of Results, read-out: MIC90) | MIC90 ([1]; n=25 per group)
